The subject of series [1] is primary human skin cells (skin fibroblast cells or primary keratinocytes). Nature of the series: in vitro 2D skin model, cellular ROS levels by MitoSOX. Type of series: cell-based. The following applies: 100 nM and 1 μM, 0.1% DMSO solvent control. The source says:
Methylene Blue: [7-(dimethylamino) phenthiazin-3-ylldene]-dImethylazinium chloride, or more simply as methylthloninium chloride. Also included are all hydrates, particularly, the hydrate or trihydrate of Methylene Blue as well as all dermatologically acceptable salts thereof, such as the chloride salt. All forms of Methylene Blue are also abbreviated herein as MB and are to be understood as such. about: as used herein means±10%. […] Examples of conventional sunscreen excipients or adjuvants, include, for example, xanthan gums, corn starch, film-forming polymers and/or copolymers, glycerin, emulsifiers, moisturizing agents and cosmetic ingredients. Further examples of conventional sunscreen composition excipients or adjuvants are described in U.S. Pat. Nos. 9,149,664; 8,128,913; 9,050,475 and 6,800,274, all of which are incorporated herein by reference in the entirety. […] SPF: means a “sun protection factor” defined at 21 USC 352.1 et seq. using the term MED, which in turn means Minimal Erythema Dose, which is defined as the quantity of erythema-effective energy (expressed in Joules per square meter) required to produce the first perceptible redness reaction with clearly defined borders. […]

The conditions of series [2]: scale of 1-10 (with 10 being the worst); cited from earlier work.
The subject of series [3] is primary human skin cells (skin fibroblast cells or primary keratinocytes). The series can be described thus: in vitro 2D skin model, cell proliferation. Type of series: cell-based. To be noted: after 13 days; for cell proliferation: 100 nM and 1 μM, relative to control treatment. The source says: Methylene Blue: [7-(dimethylamino) phenthiazin-3-ylldene]-dImethylazinium chloride, or more simply as methylthloninium chloride. Also included are all hydrates, particularly, the hydrate or trihydrate of Methylene Blue as well as all dermatologically acceptable salts thereof, such as the chloride salt. All forms of Methylene Blue are also abbreviated herein as MB and are to be understood as such. about: as used herein means±10%. […] Examples of conventional sunscreen excipients or adjuvants, include, for example, xanthan gums, corn starch, film-forming polymers and/or copolymers, glycerin, emulsifiers, moisturizing agents and cosmetic ingredients. Further examples of conventional sunscreen composition excipients or adjuvants are described in U.S. Pat. Nos. 9,149,664; 8,128,913; 9,050,475 and 6,800,274, all of which are incorporated herein by reference in the entirety. The present invention specifically avoids the inclusion of Oxybenzone and/or Octinoxate in the aforementioned U.S. patents which are used as UVA and/or UVB absorbers, and uses instead, Methylene Blue or any of the hydrates or dermatologically-acceptable salts thereof. Further, it is explicitly contemplated that conventional inorganic compounds, such as zinc oxide and/or titanium oxide, for example, may be used in formulating the sunscreen composition of the present invention. Also, polymers and/or copolymers that are conventionally used as sunscreen stabilizer emollients, such as polyester-8, may also be used in the present sunscreen formulations. Dermatologically-acceptable salts of MB: includes all salts recognized as safe for application to human skin, but generally, the chloride and/or hydrochloride salts are preferred. In vitro 2D skin test: This test is described in by Xiong, et al. in Scientific Reports 7, Article number: 2475 (2017), using primary human skin cells (skin fibroblast cells or primary keratinocytes). Sunscreen agents excluded from the present invention: the conventional sunscreen compounds Oxybenzone and Octinoxate are explicitly excluded from this invention. However, other conventional FDA-approved UVA and UVB absorbers may be used in combination with MB, its hydrates or salts in the present invention. SPF: means a “sun protection factor” defined at 21 USC 352.1 et seq. using the term MED, which in turn means Minimal Erythema Dose, which is defined as the quantity of erythema-effective energy (expressed in Joules per square meter) required to produce the first perceptible redness reaction with clearly defined borders. […]

Series [4] deals with human skin fibroblasts. Nature of the series: gamma H2AX levels (DNA double strand breakage) after UVB exposure. The format is cell-based. The following applies: 24 hours after UVB exposure, 100 nM pre-treatment; control group doubled. The protocol:
In this example, the protection ability of MB against UVB radiation was measured. […] Here, a preliminary study was conducted in which human skin fibroblasts were pre-treated with MB at 100 nM concentration for two weeks and then exposed to 0, 5, 10 and 20 seconds of UVB radiation at 1100 mW/cm^2.
Specifically, the histone H2AX Is phosphorylated to a gamma form (gamma H2AX) upon DNA double strand breakage and levels of gamma H2AX positively correlate with the presence of DNA breaks, which are commonly generated by UVB radiation.

The next series relates to Umbrella xenia. The series can be described thus: soft coral exposure in seawater for one week. The format is in vivo. To be noted: 0.5 and 1.0 μM in seawater. The source says: Samples of Umbrella xenia were placed in individual containers filled with seawater plus any one of MB or Oxybenzone or Octinoxate for one week. All of the containers were otherwise under the exact same temperature, lighting and water flow conditions. Separate containers were used for both “Control” (nothing added) and DMSO, also added in the same two concentrations specified below for MB, Oxybenzone and Octinoxate.

Series [5] is described as follows: spectrophotometric UV absorption of dilute solutions. The format is physicochemical. To be noted: 1 mM, MB versus BP-3. The protocol: In this example, the absorption characteristics based on spectrophotometric analysis of various dilute solutions of each of MB and oxybenzone (BP-3) were measured and then compared. The solution concentrations for each of MB and BP-3 were 100 μM and 1 mM.

A further series relates to human keratinocyte cells. Nature of the series: cell death of keratinocytes after harsh UVB irradiation. Type of series: cell-based. The following applies: 5 days, versus control human keratinocyte cells.
Series [6] has as its system human skin fibroblasts. The series can be described thus: recovery of MB-pretreated skin fibroblasts after UVB radiation (cell viability, survival). The format is cell-based. To be noted: 100 nM pre-treatment for two weeks. As for the experimental part:
In this example, the protection ability of MB against UVB radiation was measured. […] Here, a preliminary study was conducted in which human skin fibroblasts were pre-treated with MB at 100 nM concentration for two weeks and then exposed to 0, 5, 10 and 20 seconds of UVB radiation at 1100 mW/cm^2. In this preliminary study, both groups, i.e., MB-exposed skin cells and the control group, were exposed to the same amount of UVB radiation.

Take `COc1ccc(C(=O)c2ccccc2)c(O)c1` [BP-3]: the “cellular reactive oxygen species (ROS) levels by MitoSOX” value in series [1] is “elevated ROS levels”. Moreover, in series [2], the EWG hazard score is given as 8. The cell proliferation result in series [3] is “no changes in growth”.
For the compound `CN(C)c1ccc2nc3ccc(=[N+](C)C)cc-3sc2c1` [MB, [7-(dimethylamino)phenthiazin-3-ylldene]-dImethylazinium chloride], in the series on human skin fibroblasts [4], the “levels of gamma H2AX” value is on record as “reduced levels of gamma H2AX”. In addition, the “cellular reactive oxygen species (ROS) levels by MitoSOX” value in series [1] is on record as “dosage-dependent reduction in ROS”. Also, the “effects on soft corals” value in the series with Umbrella xenia is on record as “No adverse effects”. Besides, the “protection against UVB radiation (absorption)” value in series [5] is reported as “superior protection against UVB radiation”. In addition, the “rescue of cell death after harsh UVB irradiation (FIG. 6)” value in the series with human keratinocyte cells is “partially rescue cell death”. Also, the cell proliferation result in series [3] is “increase in cell proliferation”. The “cell number reading (FIG. 1)” value was “greatest cell number reading” in series [3] (100 nM) and “somewhat less” in series [3] (1 μM). For the same compound, the “recovery after UVB radiation (cell viability)” value in the series with human skin fibroblasts [6] (UVB 0-20 seconds at 1100 mW/cm^2, five days recovery, versus control group) was “significantly superior recovery”. In addition, in the series with human skin fibroblasts [6] (versus control samples), the “survival after high dosage-UVB radiation (imaging analysis)” value is reported as “superior survival”.

These data come from patent publication US12403079B2, “Ingredient in sunscreen compositions” (MAGIC BLUE, LLC, priority 2019, dated 2025).
